Test results taken from ChEMBL document CHEMBL1201862, “PubChem BioAssay data set” (2004).
Several values for one entry are separate records, joined by “and”; a condition that tells them apart may be missing. Equal entries are not always repeated.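 Cultured in 96-well plates, cells were exposed to test compound for 48 hours across five concentrations. Here, GI50 denotes the concentration required for 50% inhibition of growth.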 Activity calls are given as the source filed them. Rule as the data show it: active = GI50 up to about 1.1 µM and inactive = higher.

Tests used:
Experiment in all cases: growth of human tumour cells (NCI), 48 h
[1] = tested on: 786-0
[2] = tested on: A498
[3] = tested on: A549
[4] = tested on: ACHN
[5] = tested on: CAKI-1
[6] = tested on: CCRF-CEM
[7] = tested on: COLO 205
[8] = tested on: DU-145
[9] = tested on: EKVX
[10] = tested on: HCC 2998
[11] = tested on: HCT-15
[12] = tested on: HOP-62
[13] = tested on: HOP-92
[14] = tested on: HT-29
[15] = tested on: Hs-578T
[16] = tested on: IGROV-1
[17] = tested on: K562
[18] = tested on: KM12
[19] = tested on: LOX IMVI
[20] = tested on: M14
[21] = tested on: MCF7
[22] = tested on: MDA-MB-231
[23] = tested on: MDA-MB-435
[24] = tested on: MDA-N
[25] = tested on: MOLT-4
[26] = tested on: Malme-3M
[27] = tested on: NCI-H226
[28] = tested on: NCI-H23
[29] = tested on: NCI-H460
[30] = tested on: NCI-H522
[31] = tested on: NCI/ADR-RES
[32] = tested on: OVCAR-3
[33] = tested on: OVCAR-4
[34] = tested on: OVCAR-5
[35] = tested on: OVCAR-8
[36] = tested on: PC-3
[37] = tested on: RPMI-8226
[38] = tested on: RXF 393
[39] = tested on: SF-268
[40] = tested on: SF-295
[41] = tested on: SF-539
[42] = tested on: SK-MEL-28
[43] = tested on: SK-MEL-2
[44] = tested on: SK-MEL-5
[45] = tested on: SK-OV-3
[46] = tested on: SNB-19
[47] = tested on: SNB-75
[48] = tested on: SR
[49] = tested on: SW-620
[50] = tested on: T47D
[51] = tested on: TK-10
[52] = tested on: U-251
[53] = tested on: UACC-257
[54] = tested on: UACC-62
[55] = tested on: UO-31
[56] = tested on: HCT-116
[57] = tested on: HL-60
[58] = tested on: SN12C

Measured: GI50

CN1C(=O)CC2CCCN2C1=O (stereo not given)
inactive: [1] > 100 µM | [2] > 100 µM | [3] > 100 µM | [4] > 100 µM | [5] > 100 µM | [6] 4.27 µM | [7] > 100 µM | [8] > 100 µM | [9] > 100 µM | [10] > 100 µM | [12] > 100 µM | [13] 86.9 µM | [14] > 100 µM | [15] > 100 µM | [16] > 100 µM | [17] > 100 µM | [18] > 100 µM | [19] > 100 µM | [20] > 100 µM | [21] > 100 µM | [22] > 100 µM | [23] > 100 µM | [24] > 100 µM | [25] > 100 µM | [26] > 100 µM | [27] > 100 µM | [28] > 100 µM | [29] > 100 µM | [30] > 100 µM | [31] > 100 µM | [32] > 100 µM | [33] > 100 µM | [34] > 100 µM | [35] > 100 µM | [36] > 100 µM | [37] > 100 µM | [38] > 100 µM | [39] > 100 µM | [40] > 100 µM | [41] > 100 µM | [42] 5.09 µM | [43] > 100 µM | [44] > 100 µM | [45] > 100 µM | [46] > 100 µM | [47] > 100 µM | [48] > 100 µM | [49] > 100 µM | [50] > 100 µM | [51] > 100 µM | [52] > 100 µM | [53] > 100 µM | [54] > 100 µM | [55] > 100 µM
> 100 µM: [11]

CN(C)CC1CCCCCCCCCCC1=O (stereo not given)
inactive: [15] 66.4 µM | [16] > 100 µM | [42] > 100 µM | [44] > 100 µM | [45] 86.7 µM | [47] > 100 µM | [54] > 100 µM

O=[N+]([O-])c1ccc(OC2CC3C4C=CC3C2C4)c([N+](=O)[O-])c1 (stereo not given)
inactive: [1] 24.6 µM and > 31.6 µM | [3] 31 µM and 33.3 µM | [4] 37.4 µM and > 31.6 µM | [5] 29.2 µM and > 31.6 µM | [7] 54 µM and > 31.6 µM | [8] 45.8 µM and > 31.6 µM | [12] 45 µM and > 31.6 µM | [15] 33.7 µM and > 31.6 µM | [17] 30.8 µM and > 31.6 µM | [20] 21.6 µM and > 31.6 µM | [21] > 100 µM and 61.4 µM | [23] > 31.6 µM and 24.3 µM | [26] 31.4 µM and 34.8 µM | [27] > 31.6 µM and 42 µM | [30] 43.6 µM and > 31.6 µM | [32] 43.5 µM and 29.4 µM | [33] 22.8 µM and > 31.6 µM | [35] 39.2 µM and > 31.6 µM | [38] 42.6 µM and > 31.6 µM | [40] 16.5 µM and > 31.6 µM | [41] > 31.6 µM and 26.3 µM | [44] 39.8 µM and 21 µM | [46] 32.3 µM and > 31.6 µM | [48] > 10 µM | [51] > 31.6 µM and 33.7 µM | [52] 37.6 µM and > 31.6 µM | [53] 20.9 µM and > 31.6 µM
active: [37] 0.0465 µM

c1ccc(/N=C2\SC(=NNc3ccccc3)S\C2=N/c2ccccc2)cc1
inactive: [1] > 100 µM | [2] > 100 µM | [3] 25.2 µM | [4] > 100 µM | [5] > 100 µM | [6] > 100 µM | [7] 28.7 µM | [8] 62.2 µM | [9] > 100 µM | [10] 37.8 µM | [56] 50.4 µM | [57] > 100 µM | [12] 44.5 µM | [13] 70.8 µM | [14] 45.4 µM | [15] 32.8 µM | [16] 54.2 µM | [17] > 100 µM | [18] 6.12 µM | [19] 13 µM | [22] > 100 µM | [23] 35.6 µM | [24] 77.6 µM | [25] > 100 µM | [26] > 100 µM | [27] 48.1 µM | [28] > 100 µM | [29] 15.5 µM | [30] 15.3 µM | [31] 40.5 µM | [33] > 100 µM | [34] 98.2 µM | [35] > 100 µM | [36] 19.5 µM | [37] > 100 µM | [38] 7.66 µM | [39] > 100 µM | [40] 25.6 µM | [41] 62.5 µM | [42] > 100 µM | [43] 8.18 µM | [44] 44.9 µM | [45] > 100 µM | [58] 79.3 µM | [46] 72.6 µM | [47] 85.7 µM | [48] > 100 µM | [49] > 100 µM | [50] 74.1 µM | [51] > 100 µM | [52] 38.1 µM | [53] 65.5 µM | [54] 4.13 µM | [55] > 100 µM
> 100 µM: [11]
